The values that follow come from ChEMBL document CHEMBL5537119 (Eur J Med Chem, 2024).

The target of experiment [1] is Histone deacetylase 5 (Homo sapiens, UniProt Q9UQL6). Kind of experiment: Inhibition of HDAC5 (unknown origin).
For experiment [2], the target named is Histone deacetylase 3 (Homo sapiens, UniProt O15379). Nature of the experiment: Inhibition of HDAC3 (unknown origin).
Experiment [3] concerns the target T1, Protein deacetylase HDAC6 (Homo sapiens, UniProt Q9UBN7).
T1 sequence (Q9UBN7 whole entry): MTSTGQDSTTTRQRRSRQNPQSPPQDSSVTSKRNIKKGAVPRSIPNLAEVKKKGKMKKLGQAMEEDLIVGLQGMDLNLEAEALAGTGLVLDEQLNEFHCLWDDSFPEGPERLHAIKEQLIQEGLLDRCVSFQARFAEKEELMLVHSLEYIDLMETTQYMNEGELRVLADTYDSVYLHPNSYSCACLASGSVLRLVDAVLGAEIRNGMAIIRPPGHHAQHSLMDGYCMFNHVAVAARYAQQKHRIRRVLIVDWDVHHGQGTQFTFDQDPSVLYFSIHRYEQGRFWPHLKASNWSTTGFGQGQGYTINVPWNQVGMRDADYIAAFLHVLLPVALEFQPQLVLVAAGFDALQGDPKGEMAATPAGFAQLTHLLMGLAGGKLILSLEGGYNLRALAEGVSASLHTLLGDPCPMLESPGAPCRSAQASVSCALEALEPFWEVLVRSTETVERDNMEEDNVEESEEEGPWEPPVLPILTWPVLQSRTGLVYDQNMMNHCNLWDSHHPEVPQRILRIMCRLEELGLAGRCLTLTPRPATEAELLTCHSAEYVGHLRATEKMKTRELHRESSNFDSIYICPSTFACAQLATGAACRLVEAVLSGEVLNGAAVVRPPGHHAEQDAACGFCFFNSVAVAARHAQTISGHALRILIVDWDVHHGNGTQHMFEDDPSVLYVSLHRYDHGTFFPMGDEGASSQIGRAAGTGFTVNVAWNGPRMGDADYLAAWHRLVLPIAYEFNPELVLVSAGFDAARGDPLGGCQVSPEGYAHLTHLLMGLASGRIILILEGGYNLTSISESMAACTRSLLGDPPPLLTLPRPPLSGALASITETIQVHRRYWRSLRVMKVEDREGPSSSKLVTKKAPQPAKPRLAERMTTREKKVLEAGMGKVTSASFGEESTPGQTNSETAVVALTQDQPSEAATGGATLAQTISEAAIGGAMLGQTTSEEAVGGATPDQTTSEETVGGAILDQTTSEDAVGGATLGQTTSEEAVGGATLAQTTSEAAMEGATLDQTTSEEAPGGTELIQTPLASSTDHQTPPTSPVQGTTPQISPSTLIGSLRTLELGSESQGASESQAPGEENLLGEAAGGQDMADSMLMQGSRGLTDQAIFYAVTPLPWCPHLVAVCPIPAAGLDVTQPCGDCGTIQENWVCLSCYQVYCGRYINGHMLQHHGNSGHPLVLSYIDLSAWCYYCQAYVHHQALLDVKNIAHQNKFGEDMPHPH
Nature of the experiment: Inhibition of human recombinant HDAC6 using Boc-Lys(Ac)-AMC as substrate preincubated for 5 mins followed by substrate addition and measured after 90 mins by fluorescence based microplate reader analysis.

Experiment [4] deals with Histone deacetylase 1 (Homo sapiens, UniProt Q13547). Kind of experiment: Inhibition of HDAC1 (unknown origin).
Chain of Histone deacetylase 1 (Q13547 whole entry): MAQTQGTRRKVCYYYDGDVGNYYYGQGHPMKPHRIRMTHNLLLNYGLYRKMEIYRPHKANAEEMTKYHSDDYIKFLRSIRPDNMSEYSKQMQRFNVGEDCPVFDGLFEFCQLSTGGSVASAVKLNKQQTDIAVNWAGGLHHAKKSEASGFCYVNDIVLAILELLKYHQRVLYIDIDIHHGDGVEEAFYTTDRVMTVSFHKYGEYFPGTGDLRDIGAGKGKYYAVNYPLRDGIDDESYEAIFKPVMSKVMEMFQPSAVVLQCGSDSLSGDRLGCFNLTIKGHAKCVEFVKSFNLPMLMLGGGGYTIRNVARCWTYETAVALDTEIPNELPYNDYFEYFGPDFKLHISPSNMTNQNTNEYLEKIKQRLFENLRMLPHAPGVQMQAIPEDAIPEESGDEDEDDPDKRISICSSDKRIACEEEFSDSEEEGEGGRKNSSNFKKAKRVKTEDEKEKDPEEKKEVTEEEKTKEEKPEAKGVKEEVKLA

Chain of Histone deacetylase 5 (Q9UQL6 whole entry): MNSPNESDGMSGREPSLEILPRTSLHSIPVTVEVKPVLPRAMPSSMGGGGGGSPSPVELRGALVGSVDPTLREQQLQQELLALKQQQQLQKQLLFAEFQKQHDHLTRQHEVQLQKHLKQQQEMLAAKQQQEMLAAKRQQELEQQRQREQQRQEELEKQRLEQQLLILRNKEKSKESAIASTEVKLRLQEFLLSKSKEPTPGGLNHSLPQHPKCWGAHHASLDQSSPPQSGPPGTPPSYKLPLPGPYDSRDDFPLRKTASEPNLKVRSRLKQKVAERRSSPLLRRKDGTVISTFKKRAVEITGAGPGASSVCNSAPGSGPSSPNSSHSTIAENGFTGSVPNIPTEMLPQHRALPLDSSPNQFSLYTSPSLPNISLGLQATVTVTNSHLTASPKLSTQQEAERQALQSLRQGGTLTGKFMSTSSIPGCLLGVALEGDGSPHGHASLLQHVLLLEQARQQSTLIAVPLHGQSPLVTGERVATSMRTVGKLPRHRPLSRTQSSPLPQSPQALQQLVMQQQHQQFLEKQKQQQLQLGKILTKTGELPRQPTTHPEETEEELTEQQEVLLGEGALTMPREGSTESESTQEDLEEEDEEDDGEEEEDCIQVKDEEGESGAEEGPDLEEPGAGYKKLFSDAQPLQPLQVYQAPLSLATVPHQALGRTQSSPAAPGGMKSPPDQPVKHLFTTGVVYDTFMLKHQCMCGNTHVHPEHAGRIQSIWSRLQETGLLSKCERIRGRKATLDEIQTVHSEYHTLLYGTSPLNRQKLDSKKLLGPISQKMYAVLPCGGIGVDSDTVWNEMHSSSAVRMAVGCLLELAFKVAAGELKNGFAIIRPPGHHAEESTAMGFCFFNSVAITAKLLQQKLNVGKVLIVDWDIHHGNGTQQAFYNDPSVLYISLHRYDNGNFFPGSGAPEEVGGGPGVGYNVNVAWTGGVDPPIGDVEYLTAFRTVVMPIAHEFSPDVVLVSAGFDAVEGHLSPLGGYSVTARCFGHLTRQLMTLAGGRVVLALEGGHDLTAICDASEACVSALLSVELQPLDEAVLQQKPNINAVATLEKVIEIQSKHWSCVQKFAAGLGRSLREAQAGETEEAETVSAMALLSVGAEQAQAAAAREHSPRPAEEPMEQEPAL
Chain of Histone deacetylase 3 (O15379 whole entry): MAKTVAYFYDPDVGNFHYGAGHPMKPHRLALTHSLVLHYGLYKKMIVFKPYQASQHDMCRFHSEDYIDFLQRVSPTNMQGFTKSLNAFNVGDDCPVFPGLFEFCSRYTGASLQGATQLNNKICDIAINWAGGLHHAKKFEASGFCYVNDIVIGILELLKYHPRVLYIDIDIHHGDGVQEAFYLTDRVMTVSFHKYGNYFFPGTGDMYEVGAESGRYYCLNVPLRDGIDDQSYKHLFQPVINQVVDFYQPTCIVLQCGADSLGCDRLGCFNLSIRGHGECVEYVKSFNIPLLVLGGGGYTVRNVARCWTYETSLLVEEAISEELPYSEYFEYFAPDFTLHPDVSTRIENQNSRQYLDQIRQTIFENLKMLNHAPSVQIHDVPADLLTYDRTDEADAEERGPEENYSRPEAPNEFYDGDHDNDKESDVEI

Broadly, the IC50 is the midpoint of a concentration-inhibition curve. Turning to `O=C(NOCc1coc(-c2ccccc2)n1)c1ccc(-c2noc(C(F)(F)F)n2)cc1`, the IC50 in experiment [1] was 1.09 µM; in experiment [2], above 100 µM; in experiment [3] it was above 100 µM; in experiment [4], above 100 µM.
